Measurements reported in publication PMC8945599, “VEGFA, B, C: Implications of the C-Terminal Sequence Variations for the Interaction with Neuropilins” (Biomolecules, 2022).
Where no end group is shown, it is not given here.

How the values were obtained:
[1] = target: T1, NRP1-b1 (b1 domain of Neuropilin-1) (Homo sapiens, UniProt O14786); assay: Surface plasmon resonance, peptide binding to immobilised NRP1-b1; details: SPR, Biacore T200, protein immobilised on CM5 chip (1000 RU), peptide 64 µM to 0.125 µM, 20 mM Tris pH 7.9, 50 mM NaCl
T1 construct: 6-His-tag with TEV protease cleavage site (N); made in house; host or cells: Rosetta-gami2(DE3)pLysS E. coli
T1 sequence (O14786 275-424 limits assumed): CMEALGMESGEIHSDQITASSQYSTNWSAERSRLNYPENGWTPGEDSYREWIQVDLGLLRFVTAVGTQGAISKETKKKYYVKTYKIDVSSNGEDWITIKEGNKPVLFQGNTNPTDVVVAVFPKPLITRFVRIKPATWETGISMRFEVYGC
Source text: (§1) Proteins were expressed and purified as previously described. NRP1-b1 and NRP2-b1 were expressed in Rosetta-gami2(DE3)pLysS E.coli cells that were transformed with a pET-15b vector containing NRP1-b1 and NRP2-b1 sequences with an N-terminal 6-His-tag and a TEV protease cleavage site. After the cells were harvested by centrifugation and lysed by sonication, the proteins were purified from the filtered cell extract. Purification protocol, as described in Tsai et al. (2016), included a combination of nickel ion-affinity chromatography, size exclusion, and a final ion exchange chromatography step.
(§2) SPR was performed using the Biacore T200 Enhanced Sensitivity model (GE, Healthcare, UK). Protein was immobilised on a CM5 chip, following the manufacturer’s instructions until it reached 1000 response units (RU). SPR was run with a range of peptide concentrations from 64 µM to 0.125 µM, in a buffer of 20 mM Tris pH 7.9, 50 mM NaCl. Biacore T200 evaluation software was used for data analysis.

[2] = target: T2, NRP2-b1 (b1 domain of Neuropilin-2) (Homo sapiens, UniProt O60462); assay: Surface plasmon resonance, peptide binding to immobilised NRP2-b1; details: SPR, Biacore T200, protein immobilised on CM5 chip (1000 RU), peptide 64 µM to 0.125 µM, 20 mM Tris pH 7.9, 50 mM NaCl
T2 construct: 6-His-tag with TEV protease cleavage site (N); made in house; host or cells: Rosetta-gami2(DE3)pLysS E. coli
T2 sequence (O60462 277-427 limits assumed): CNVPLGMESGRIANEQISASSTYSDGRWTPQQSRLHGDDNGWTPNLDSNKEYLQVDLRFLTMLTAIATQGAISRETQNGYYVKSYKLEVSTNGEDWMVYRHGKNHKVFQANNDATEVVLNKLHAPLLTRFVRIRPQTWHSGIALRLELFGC
Source text: as §1, §2

NRP1-b1 = target: T3, NRP1-b1 (Homo sapiens, UniProt O14786); assay: Thermostability shift assay, NRP1-b1; type: binding; details: 5 µM protein, 1 mM ligand, 10X SYPRO Orange, LightCycler 480 II; average of four measurements
T3 construct: 6-His-tag with TEV protease cleavage site (N); made in house; host or cells: Rosetta-gami2(DE3)pLysS E. coli
T3 sequence (O14786 275-424 limits assumed): T1 sequence (O14786 275-424 limits assumed)
Method: Thermostability assays were performed on the LightCycler 480 II (Roche) with a final concentration of 5 µM protein, 1 mM ligand and 10X of SYPRO Orange, in DMSO (Thermo Fisher). Negative and positive control experiments were performed using the protein with buffer alone or the ligand without protein and the protein with a strongly binding ligand EG01377, respectively. Experiments were carried out in duplicates on two separate days for two different batches of protein preparations and the values in the table represent the averages from the four measurements.

Substance | Kd [1] [µM] | Kd [2] [µM] | shift in Tm (ΔTm) of NRP1-b1 (NRP1-b1) [°C]
Ac-DKPRR [A165] | 7.87 | 30.9 | 3.5 ± 0.2
Ac-RKLRR [B167] | 4.12 | 13 | 

Continued, values first:

Kd [1] [µM] | Kd [2] [µM] | shift in Tm (ΔTm) of NRP1-b1 (NRP1-b1) [°C] | Substance
33.1 | 92.2 | 3.0 ± 0.2 | Ac-AAAAR [Con, reference compound]
10 | 24.8 | 3.6 ± 0.2 | Ac-RPQPR [B186]
33.2 | 27.1 | 2.0 ± 0.3 | Ac-SIIRR [C]
